Results: patent US12678413B2, “Compositions containing pterosin compound and derivatives thereof active ingredients for prevention or treatment of degenerative brain diseases” (priority 2017, dated 2026)
Like-named read-outs stand apart in the source and are kept apart here.

What was measured:
[1] = test system: B16F10 cells; assay: MTT cytotoxicity assay, cancerous cell line B16F10; type: cell-based; settings: B16F10 mouse melanoma, 48 hours incubation
Method: (§1) The normal cell line NIH3T3 (mouse embryo fibroblast cell-line) and the cancerous cell line B16F10 (mouse melanoma cell-line) were separately grown in 96-well plates and incubated for 48 hours with predetermined concentrations of each of the compounds. After additional incubation with MTT, absorbance at 550 nm was read using a microplate reader. Absorbance is an index accounting for a number of viable cells and was used to calculate cell proliferation rates according to the following formula. All experiments were conducted three times for reproducibility. Cell proliferation rate (%)=OD550(sample)/OD550(control)
(§2) Then, LD50 (Lethal Dose 50) values were calculated on the basis of changes in the cell proliferation rate.

[2] = target: T1, butyrylcholinesterase (BChE) (Equus caballus, UniProt P81908); assay: In vitro cholinesterase activity assay (Ellman), BChE; type: biochemical; settings: concentrations up to 125 μM; Mean ± SEM; read-out: IC50 Butyrylcholine esterase Mean ± SEM
T1 construct: horse serum butyrylcholinesterase (BChE, EC3.1.1.8); purchased Sigma-Aldrich Co. (St. Louis, MO, USA); host or cells: horse serum
T1 sequence (P81908 whole entry): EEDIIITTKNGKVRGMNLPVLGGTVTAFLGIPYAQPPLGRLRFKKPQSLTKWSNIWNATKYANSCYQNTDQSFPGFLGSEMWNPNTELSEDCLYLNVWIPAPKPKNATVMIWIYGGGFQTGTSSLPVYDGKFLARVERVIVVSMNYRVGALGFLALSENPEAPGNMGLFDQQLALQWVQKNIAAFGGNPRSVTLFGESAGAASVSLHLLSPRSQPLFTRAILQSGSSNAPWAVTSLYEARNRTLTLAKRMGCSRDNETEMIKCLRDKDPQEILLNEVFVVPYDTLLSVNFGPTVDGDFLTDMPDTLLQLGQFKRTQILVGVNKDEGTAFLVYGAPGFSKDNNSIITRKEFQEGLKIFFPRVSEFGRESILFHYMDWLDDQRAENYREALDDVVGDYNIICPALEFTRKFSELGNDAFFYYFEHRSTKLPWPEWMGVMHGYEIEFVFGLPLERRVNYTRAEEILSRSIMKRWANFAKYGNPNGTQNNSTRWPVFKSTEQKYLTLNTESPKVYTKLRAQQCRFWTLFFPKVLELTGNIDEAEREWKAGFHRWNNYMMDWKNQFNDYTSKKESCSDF
Method: (§3) The reaction started with the addition of 10 μL of DTNB and 10 μL of Ach or Bch.
(§4) Briefly, the basis for this assay is the hydrolysis of acetylthiocholine by acetylcholinesterase, producing thiocholine that reacts with DTNB. […] Degrees of inhibition were calculated according to […] wherein E and S represent enzyme activities in the presence and absence of a test sample, respectively.
(§5) The compounds of Table 1 were evaluated for anti-Alzheimer activity. In this regard, inhibitory activity against AChE (acetylcholinesterase) and BChE (butyrylcholinesterase), which lyse acetylcholine in the central nervous system, was measured according to the Experimental Method to calculate IC(inhibition concentrations)50 values.

[3] = test system: NIH3T3 cells; assay: MTT cytotoxicity assay, normal cell line NIH3T3; type: cell-based; settings: NIH3T3 mouse embryo fibroblast, 48 hours incubation
Method: as §1, §2

[4] = target: T2, acetylcholinesterase (AChE) (Electrophorus electricus, UniProt O42275); assay: In vitro cholinesterase activity assay (Ellman), AChE; type: biochemical; settings: for IC50: concentrations up to 125 μM, Mean ± SEM, read-out: IC50 Acetylcholine Esterase Mean ± SEM; for SI: selectivity index (BChE/AChE): ratio of IC50 BChE/AChE
T2 construct: purchased Sigma-Aldrich Co. (St. Louis, MO, USA)
T2 sequence (O42275 24-633): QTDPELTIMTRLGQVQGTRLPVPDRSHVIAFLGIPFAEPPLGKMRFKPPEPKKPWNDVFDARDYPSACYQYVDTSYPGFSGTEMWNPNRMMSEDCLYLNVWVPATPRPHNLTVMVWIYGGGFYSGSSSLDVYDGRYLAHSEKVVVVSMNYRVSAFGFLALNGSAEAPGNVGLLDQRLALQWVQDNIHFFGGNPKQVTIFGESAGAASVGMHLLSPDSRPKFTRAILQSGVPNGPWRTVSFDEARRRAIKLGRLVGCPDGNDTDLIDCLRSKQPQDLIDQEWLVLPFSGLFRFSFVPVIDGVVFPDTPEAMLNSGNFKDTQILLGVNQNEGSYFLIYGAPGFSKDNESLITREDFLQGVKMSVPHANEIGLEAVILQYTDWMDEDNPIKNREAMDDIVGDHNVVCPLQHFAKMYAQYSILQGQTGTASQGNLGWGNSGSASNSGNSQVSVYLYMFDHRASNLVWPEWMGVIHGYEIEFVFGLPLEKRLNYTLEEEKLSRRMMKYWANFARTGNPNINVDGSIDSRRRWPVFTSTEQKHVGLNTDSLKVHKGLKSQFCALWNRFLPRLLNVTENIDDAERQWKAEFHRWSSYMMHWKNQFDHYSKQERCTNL
Method: as §3, §4, §5

[5] = target: T2, acetylcholinesterase (AChE); assay: AChE enzyme kinetics (Dixon plot and Lineweaver plot); type: biochemical
Method: as §3, §4

[6] = target: T3, BACE1 (Homo sapiens, UniProt P56817); assay: BACE1 enzyme kinetics (Dixon plot and Lineweaver plot); type: biochemical
T3 construct: purchased Pan Vera Co. (Madison, WI, USA)
T3 sequence (P56817 46-501): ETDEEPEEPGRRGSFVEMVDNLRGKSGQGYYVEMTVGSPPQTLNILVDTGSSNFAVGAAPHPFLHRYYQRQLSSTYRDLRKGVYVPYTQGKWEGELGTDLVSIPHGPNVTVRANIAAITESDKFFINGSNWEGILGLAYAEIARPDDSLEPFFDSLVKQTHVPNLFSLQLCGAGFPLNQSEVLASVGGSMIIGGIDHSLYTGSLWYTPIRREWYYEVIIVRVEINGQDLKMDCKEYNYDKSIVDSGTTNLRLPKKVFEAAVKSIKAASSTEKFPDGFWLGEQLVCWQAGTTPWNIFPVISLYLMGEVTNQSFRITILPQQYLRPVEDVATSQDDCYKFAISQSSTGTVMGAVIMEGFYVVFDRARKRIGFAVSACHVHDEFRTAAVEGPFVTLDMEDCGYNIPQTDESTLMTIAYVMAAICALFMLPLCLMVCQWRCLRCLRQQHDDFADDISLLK
Method: A BACE1 fluorescence resonance energy transfer (FRET) assay kit (β-secretase, recombinant human enzyme) was purchased from Pan Vera Co. (Madison, WI, USA). The assay was carried out according to the manual provided, with a modification made thereto as described by Jung et al. (Jung et al., Biol Pharm Bull, 2010, 33:267-272). Quercetin was used as a positive control.
In addition, an enzyme kinetics experiment was conducted using the Lineweaver plot and Dixon plot (see FIG. 7) in order to examine the BACE1 inhibition mechanism of the novel compound (Compound 2). […] The results of the experiment indicate that the novel compound of the present disclosure is a very potent inhibitor against BACE1.

[7] = target: T1, butyrylcholinesterase (BChE); assay: BChE enzyme kinetics (Dixon plot and Lineweaver plot); type: biochemical
Method: as §3, §4

[8] = target: T4, BACE1 (β-secretase, recombinant human enzyme) (Homo sapiens, UniProt P56817); assay: In vitro BACE1 activity assay (FRET kit); type: biochemical; settings: compounds in 10% DMSO, concentrations up to 125 μM
T4 construct: purchased Pan Vera Co. (Madison, WI, USA)
T4 sequence (P56817 46-501): as above
Source text: BACE1 (beta-secretase) FRET assay kit was purchased from Pan Vera Co. (Madison, WI, USA). All the chemicals and solvents used in column chromatography were of reagent grade and were used as received without further purification.
A BACE1 fluorescence resonance energy transfer (FRET) assay kit (β-secretase, recombinant human enzyme) was purchased from Pan Vera Co. (Madison, WI, USA).
BACE1 is an enzyme promotive of the production of β-amyloid, which destroys neurons. In order to examine the effects on the compounds of Table 1 on the activity of BACE1, IC(inhibition concentrations)50 values were determined by measuring BACE1 activity in vitro according to Experimental Methods.

[9] = listed as 3-[2-(1-acetylcycloproply)-1-propenyl]-5-methyl-2-cyclopenten-1-one

Cc1cc2c(c(C)c1CCO)C(=O)C(C)(C)C2 [Compound 11, pterosin Z]
LD50 Cancer cell B16F10 ([1]; listed as PterosinZ): 618 ± 71 µM
LD50 Cancer cell B16F10 ([1]; listed as pterosin Z): 618 ± 71 µM
IC50 [2]: 80.1 ± 6.8 µM
LD50 Normal cell NIH3T3 ([3]; listed as PterosinZ): 553 ± 37 µM
LD50 Normal cell NIH3T3 ([3]; listed as pterosin Z): 553 ± 37 µM
IC50 [4]: 46.5 ± 3.4 µM
SI: selectivity index (BChE/AChE) [4]: 1.7

Cc1cc2c(c(C)c1CCO)C(=O)[C@](C)(COC1O[C@H](CO)[C@@H](O)[C@H](O)[C@H]1O)C2 (stereo partly drawn) [Compound 13, (2S)-pteroside A2]
LD50 Cancer cell B16F10 [1]: >5,000 μM
LD50 Normal cell NIH3T3 [3]: >5,000 μM
IC50 [4]: 39.3 ± 1.9 µM
SI: selectivity index (BChE/AChE) [4]: 3.0

Cc1cc2c(c(C)c1CCO)C(=O)[C@H](C)[C@H]2O [Compound 7, (2R,3R)-pterosin C]
Inhibition type Acetylcholinesterase [5]: noncompetitive type
Ki [5]: 29.6 µM
Inhibition type Acetylcholinesterase ([5]; listed as (2R,3R)-Pterosin C): Noncompetitive
LD50 Cancer cell B16F10 [1]: >5,000 μM
IC50 [2]: 20.3 ± 0.88 µM
Inhibition type BACE1 [6]: mixed type
Ki [6]: 27.6 µM
Inhibition type BACE1 ([6]; listed as (2R,3R)-Pterosin C): Mixed-type
Inhibition type Butyrylcholinesterase [7]: mixed type
Ki [7]: 4.77 µM
Inhibition type Butyrylcholinesterase ([7]; listed as (2R,3R)-Pterosin C): Mixed-type
LD50 Normal cell NIH3T3 [3]: >5,000 μM
IC50 [4]: 23.2 ± 4.6 µM
SI: selectivity index (BChE/AChE) [4]: 0.89

Cc1cc2c(c(C)c1CCO[C@@H]1OC(CO)[C@@H](O)[C@H](O)C1O)C(=O)[C@H](C)[C@H]2O (stereo partly drawn) [Compound 16, (2R,3R)-pteroside C]
LD50 Cancer cell B16F10 [1]: >5,000 μM
Inhibition type BACE1 [6]: mixed type
Ki [6]: 12.6 µM
Inhibition type BACE1 ([6]; listed as (2R,3R)-Pteroside C): Mixed-type
IC50 [8]: 9.74 ± 1.9 µM
LD50 Normal cell NIH3T3 [3]: >5,000 μM
SI: selectivity index (BChE/AChE) [4]: 1.4

Cc1cc2c(c(C)c1CCO[C@@H]1OC(CO)[C@@H](O)[C@H](O)C1O)C(=O)[C@@H](C)[C@H]2O (stereo partly drawn) [Compound 15, (2S,3R)-pteroside C]
LD50 Cancer cell B16F10 [1]: >5,000 μM
IC50 [8]: 28.9 ± 2.2 µM
LD50 Normal cell NIH3T3 [3]: >5,000 μM
SI: selectivity index (BChE/AChE) [4]: 1.4

Cc1cc2c(c(C)c1CCO)C(=O)[C@H](C)[C@@H]2O [Compound 5, (2R,3S)-pterosin C]
LD50 Cancer cell B16F10 [1]: >5,000 μM
LD50 Normal cell NIH3T3 [3]: >5,000 μM

Cc1cc2c(c(C)c1CCO)C(=O)[C@@H](C)[C@@H]2O [Compound 6, (2S,3S)-pterosin C]
LD50 Cancer cell B16F10 [1]: >5,000 μM
LD50 Normal cell NIH3T3 [3]: >5,000 μM

Cc1cc2c(c(C)c1CCO)C(=O)C(C)(C)[C@@H]2O [Compound 9, (3R)-Pterosin D]
LD50 Cancer cell B16F10 [1]: >5,000 μM
IC50 [2]: > 125 µM
LD50 Normal cell NIH3T3 [3]: >5,000 μM
IC50 [4]: 68.7 ± 3.7 µM

Cc1cc2c(c(C)c1CCO)C(=O)[C@](C)(CO)C2 [Compound 3, (2S)-pterosin A]
LD50 Cancer cell B16F10 ([1]; listed as (2S)-Pterosin A): 522 ± 25 µM
LD50 Cancer cell B16F10 ([1]; listed as pterosin A): 522 ± 25 µM
LD50 Normal cell NIH3T3 [3]: >5,000 μM
SI: selectivity index (BChE/AChE) [4]: 1.2

Cc1cc2c(c(C)c1CCO)C(=O)[C@H](C)C2 [Compound 4, (2R)-pterosin B]
Inhibition type Acetylcholinesterase [5]: mixed type
Ki [5]: 12.1 µM
Inhibition type Acetylcholinesterase ([5]; listed as (2R)-Pterosin B): Mixed-type
LD50 Cancer cell B16F10 [1]: >5,000 μM
IC50 [2]: 48.1 ± 0.59 µM
Inhibition type BACE1 [6]: noncompetitive type
Ki [6]: 38.3 µM
Inhibition type BACE1 ([6]; listed as (2R)-Pterosin B): Noncompetitive
Inhibition type Butyrylcholinesterase [7]: noncompetitive type
Ki [7]: 53.5 µM
Inhibition type Butyrylcholinesterase ([7]; listed as (2R)-Pterosin B): Noncompetitive
LD50 Normal cell NIH3T3 ([3]; listed as (2,R)-Pterosin B): 3,110 ± 130 μM
LD50 Normal cell NIH3T3 ([3]; listed as pterosin B): 3,110±130 μM
IC50 [4]: 16.2 ± 1 µM
SI: selectivity index (BChE/AChE) [4]: 3.0

CC(=O)C1(/C(C)=C\C2=CC(=O)C(C)C2)CC1 (stereo not drawn) [Compound 2, 3-[2-(1-Acetylcyclopropyl)-1-propenyl)-5-methyl-2-cyclopenten-1-one]
LD50 Cancer cell B16F10 [1]: 688 µM
LD50 Cancer cell B16F10 [1, 9]: 688 ± 17 µM
Ki [6]: 19 µM
Inhibition type BACE1 [6, 9]: Mixed-type
Inhibition type BACE1 ([6]; listed as novel compound): mixed type
LD50 Normal cell NIH3T3 [3]: 1,550 μM
LD50 Normal cell NIH3T3 [3, 9]: 1,550 ± 100 μM
SI: selectivity index (BChE/AChE) [4]: 0.83

Cc1cc2c(c(C)c1CCO)C(=O)[C@@H](C)[C@H]2O [Compound 8, (2S,3R)-pterosin C]
Inhibition type Acetylcholinesterase [5]: mixed type
Ki [5]: 16.3 µM
Inhibition type Acetylcholinesterase ([5]; listed as (2S,3R)-Pterosin C): Mixed-type
LD50 Cancer cell B16F10 [1]: >5,000 μM
IC50 [2]: 44.3 ± 1 µM
Inhibition type BACE1 [6]: noncompetitive type
Ki [6]: 33.8 µM
Inhibition type BACE1 ([6]; listed as (2S,3R)-Pterosin C): Noncompetitive
Inhibition type Butyrylcholinesterase [7]: noncompetitive type
Ki [7]: 29.9 µM
Inhibition type Butyrylcholinesterase ([7]; listed as (2S,3R)-Pterosin C): Noncompetitive
LD50 Normal cell NIH3T3 [3]: >5,000 μM
IC50 [4]: 12.8 ± 0.79 µM
SI: selectivity index (BChE/AChE) [4]: 3.5

Cc1c(CCO)c(CO)cc2c1C(=O)[C@@H](C)C2 [Compound 10, (2S)-pterosin P]
LD50 Cancer cell B16F10 [1]: >5,000 μM
IC50 [2]: 55.9 ± 5.6 µM
LD50 Normal cell NIH3T3 [3]: >5,000 μM
IC50 [4]: 17.8 ± 0.62 µM
SI: selectivity index (BChE/AChE) [4]: 3.1

COc1ccc2cc3[n+](cc2c1OC)CCc1cc2c(cc1-3)OCO2 [Berberine, reference compound]
IC50 [4]: 0.39 ± 0.01 µM

Cc1cc2c(c(C)c1CCO[C@@H]1OC(CO)[C@@H](O)[C@H](O)C1O)C(=O)C(C)(C)C2 (stereo partly drawn) [Compound 20, pteroside Z]
LD50 Cancer cell B16F10 [1]: >5,000 μM
IC50 [8]: 60 ± 4.3 µM
LD50 Normal cell NIH3T3 [3]: >5,000 μM
IC50 [4]: 22.4 ± 2.2 µM
SI: selectivity index (BChE/AChE) [4]: 0.24
